Values joined by “and” are separate entries in the source; they are usually repeats but may differ in a detail not shown here. Equal entries are not always repeated. Toxic doses and inconclusive results are not listed. The calls were made as follows: active = survival T/C of 150% or more; inactive = T/C below 125% in these data. Peptide text beside a SMILES is read from it.
Test system: P388 leukemia ip, CD2F1 mice, survival T/C
Assay: NCI In Vivo Anticancer Drug Screen. Data for tumor model P388 Leukemia (intraperitoneal) in CD2F1 (CDF1) mice
Settings: endpoint: median survival time, higher = longer survival
Outline: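 Mice carrying the transplanted tumor received test compound or vehicle. Survival was recorded in each group, and the value is the treated-group measurement divided by that of the vehicle-treated control group.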

[1] = dose: 50.0 mg/kg/injection, schedule: Q01DX009 (ip), vehicle: saline with Tween-80
[2] = dose: 50.0 mg/kg/injection, schedule: Q01DX009 (ip), vehicle: Klucel (hydroxypropylcellulose) (HPC)
[3] = dose: 100.0 mg/kg/injection, schedule: Q01DX009 (ip), vehicle: Klucel (hydroxypropylcellulose) (HPC)
[4] = dose: 200.0 mg/kg/injection, schedule: Q01DX009 (ip), vehicle: Klucel (hydroxypropylcellulose) (HPC)
[5] = dose: 50.0 mg/kg/injection, schedule: Q01DX005 (ip), vehicle: saline with Tween-80
[6] = dose: 100.0 mg/kg/injection, schedule: Q01DX005 (ip), vehicle: saline with Tween-80
[7] = dose: 200.0 mg/kg/injection, schedule: Q01DX005 (ip), vehicle: saline with Tween-80
[8] = dose: 100.0 mg/kg/injection, schedule: Q04DX002 (ip), vehicle: Klucel (hydroxypropylcellulose) (HPC)
[9] = dose: 200.0 mg/kg/injection, schedule: Q04DX002 (ip), vehicle: Klucel (hydroxypropylcellulose) (HPC)
[10] = dose: 400.0 mg/kg/injection, schedule: Q04DX002 (ip), vehicle: Klucel (hydroxypropylcellulose) (HPC)
[11] = dose: 100.0 mg/kg/injection, schedule: Q01DX009 (ip), vehicle: saline with Tween-80
[12] = dose: 200.0 mg/kg/injection, schedule: Q01DX009 (ip), vehicle: saline with Tween-80

Measured: T/C

CCCCN(CCCC)CC(O)c1c(OC)c2cc(Cl)ccc2c2ccc(Cl)cc12 (stereo unspecified)
inactive: dose: 25.0 mg/kg/injection, schedule: Q01DX009 (ip), vehicle: saline with Tween-80 94 % of control | [1] 100 % of control

O=C1C=CC2(CC=CCC2)CC1 (stereo unspecified)
inactive: dose: 6.25 mg/kg/injection, schedule: Q01DX009 (ip), vehicle: Klucel (hydroxypropylcellulose) (HPC) 110 % of control | dose: 12.5 mg/kg/injection, schedule: Q01DX008 (ip), vehicle: Klucel (hydroxypropylcellulose) (HPC) 101 % of control | dose: 12.5 mg/kg/injection, schedule: Q01DX009 (ip), vehicle: Klucel (hydroxypropylcellulose) (HPC) 108 % of control | dose: 25.0 mg/kg/injection, schedule: Q01DX008 (ip), vehicle: Klucel (hydroxypropylcellulose) (HPC) 100 % of control | dose: 25.0 mg/kg/injection, schedule: Q01DX009 (ip), vehicle: Klucel (hydroxypropylcellulose) (HPC) 100 % of control | [2] 121 % of control | [3] 109 % of control | [4] 110 % of control

Cc1nc2ccccc2c2c(N)cccc12
inactive: dose: 25.0 mg/kg/injection, schedule: Q01DX005 (ip), vehicle: Klucel (hydroxypropylcellulose) (HPC) 105 % of control | dose: 50.0 mg/kg/injection, schedule: Q01DX005 (ip), vehicle: Klucel (hydroxypropylcellulose) (HPC) 102 % of control | dose: 100.0 mg/kg/injection, schedule: Q01DX005 (ip), vehicle: Klucel (hydroxypropylcellulose) (HPC) 98 % of control | dose: 200.0 mg/kg/injection, schedule: Q01DX005 (ip), vehicle: Klucel (hydroxypropylcellulose) (HPC) 105 % of control

CC(=O)OCC1OC(Oc2ccc(C=C(C(C)=O)C(C)=O)cc2)C(OC(C)=O)C(OC(C)=O)C1OC(C)=O (stereo unspecified)
inactive: [5] 105 % of control | [6] 101 % of control | [7] 104 % of control

CN=C(C)c1c(O)n(-c2ccccc2)[nH]c1=O
inactive: [8] 96 % of control | [9] 102 % of control | [10] 90 % of control

Cn1c(=O)nc2n(C)c3ccccc3cc-2c1=O
inactive: [1] 116 % of control | [11] 116 % of control | [12] 113 % of control

NC(Cc1cnc[nH]1)C(=O)NC(CO)C(=O)O (stereo not drawn) (H-His-Ser-OH; configuration not given here)
inactive: dose: 60.0 mg/kg/injection, schedule: Q01DX005 (ip), vehicle: saline 96 % of control | dose: 120.0 mg/kg/injection, schedule: Q01DX005 (ip), vehicle: saline 99 % of control | dose: 240.0 mg/kg/injection, schedule: Q01DX005 (ip), vehicle: saline 100 % of control

COC(=O)C1CSC(c2c(CO)cnc(C)c2O)N1 (stereo unspecified)
inactive: dose: 100.0 mg/kg/injection, schedule: Q04DX002 (ip), vehicle: saline + Tween-80 + alcohol 105 % of control | dose: 200.0 mg/kg/injection, schedule: Q04DX002 (ip), vehicle: saline + Tween-80 + alcohol 96 % of control | dose: 400.0 mg/kg/injection, schedule: Q04DX002 (ip), vehicle: saline + Tween-80 + alcohol 107 % of control

O=[N+]([O-])c1cc(I)c(O)c(/C=N/NS(=O)(=O)c2ccc(Cl)cc2)c1
inactive: [5] 101 % of control | [6] 100 % of control

CC(=O)O.CC(=O)O.CC(=O)O.CC(=O)O.O=C(O)C1C[N-]CC(C(=O)O)C1.O=C(O)C1C[N-]CC(C(=O)O)C1.[Cu+].[Cu+] (stereo unspecified)
inactive: dose: 3.12 mg/kg/injection, schedule: Q01DX005 (ip), vehicle: suspension in saline 95 % of control | dose: 6.25 mg/kg/injection, schedule: Q01DX005 (ip), vehicle: suspension in saline 99 % of control | dose: 12.5 mg/kg/injection, schedule: Q01DX005 (ip), vehicle: suspension in saline 94 % of control

CC1=C(OS(C)(=O)=O)CCC1=O
inactive: dose: 12.5 mg/kg/injection, schedule: Q01DX005 (ip), vehicle: saline with Tween-80 104 % of control | dose: 25.0 mg/kg/injection, schedule: Q01DX005 (ip), vehicle: saline with Tween-80 103 % of control | [5] 103 % of control and 107 % of control | [6] 106 % of control

CC1(C(=O)O)C2C=CC3(CN(c4ccccc4)C(=O)C31c1ccccc1)O2 (stereo unspecified)
inactive: dose: 60.0 mg/kg/injection, schedule: Q01DX005 (ip), vehicle: Klucel (hydroxypropylcellulose) (HPC) 89 % of control | dose: 120.0 mg/kg/injection, schedule: Q01DX005 (ip), vehicle: Klucel (hydroxypropylcellulose) (HPC) 100 % of control | dose: 240.0 mg/kg/injection, schedule: Q01DX005 (ip), vehicle: Klucel (hydroxypropylcellulose) (HPC) 102 % of control

O/N=C\c1ccccc1P(c1ccccc1/C=N\O)c1ccccc1/C=N\O
inactive: dose: 100.0 mg/kg/injection, schedule: Q01DX001 (ip), vehicle: saline with Tween-80 87 % of control | dose: 200.0 mg/kg/injection, schedule: Q01DX001 (ip), vehicle: saline with Tween-80 89 % of control

CCOC(=O)C1CSC(c2c(COP(=O)(O)O)cnc(C)c2O)N1 (stereo unspecified)
inactive: [5] 96 % of control | [6] 100 % of control | [7] 94 % of control

O=C(O)c1cc2cccc([N+](=O)[O-])c2[se]1
inactive: dose: 50.0 mg/kg/injection, schedule: Q01DX009 (ip), vehicle: suspension in saline 106 % of control | dose: 100.0 mg/kg/injection, schedule: Q01DX009 (ip), vehicle: suspension in saline 96 % of control | dose: 200.0 mg/kg/injection, schedule: Q01DX009 (ip), vehicle: suspension in saline 113 % of control

CCNC(=O)CCC(NS(=O)(=O)c1ccc(C)cc1)C(=O)O (stereo unspecified)
inactive: [8] 100 % of control | [9] 100 % of control | [10] 105 % of control

C/C=C(/C)c1cccc(OCc2ccccc2)c1OCc1ccccc1
inactive: [1] 95 % of control | [11] 90 % of control | [12] 106 % of control

C[C@]12CC(=O)O[C@@H](C[C@H]1OC(=O)c1ccccc1)[C@@]21CO1
inactive: dose: 1.0 mg/kg/injection, schedule: Q04DX002 (ip), vehicle: distilled water + Tween-80 102 % of control | dose: 2.0 mg/kg/injection, schedule: Q04DX002 (ip), vehicle: distilled water + Tween-80 103 % of control | dose: 4.0 mg/kg/injection, schedule: Q04DX002 (ip), vehicle: distilled water + Tween-80 100 % of control | dose: 8.0 mg/kg/injection, schedule: Q04DX002 (ip), vehicle: distilled water + Tween-80 94 % of control | dose: 16.0 mg/kg/injection, schedule: Q04DX002 (ip), vehicle: distilled water + Tween-80 100 % of control

CC(=O)OC1(c2nccc3ccccc23)CCN(Cc2ccccc2)CC1
inactive: [2] 106 % of control | [3] 106 % of control | [4] 102 % of control

CCOC(=O)C1CCCCC12Nc1cccc3cccc(c13)N2 (stereo unspecified)
inactive: [5] 95 % of control | [6] 105 % of control | [7] 113 % of control

Cc1ccc(Cc2nnc(C)c3c(C)[nH]nc23)cc1
inactive: [2] 100 % of control | [3] 95 % of control | [4] 93 % of control

Cn1nc(-c2ccccc2)c(-c2ccccc2)c(C#N)c1=O
inactive: dose: 25.0 mg/kg/injection, schedule: Q04DX002 (ip), vehicle: distilled water + Tween-80 109 % of control | dose: 50.0 mg/kg/injection, schedule: Q04DX002 (ip), vehicle: distilled water + Tween-80 102 % of control | dose: 100.0 mg/kg/injection, schedule: Q04DX002 (ip), vehicle: distilled water + Tween-80 101 % of control | dose: 200.0 mg/kg/injection, schedule: Q04DX002 (ip), vehicle: distilled water + Tween-80 100 % of control

C/C(=N/NS(=O)(=O)c1c(C(C)C)cc(C(C)C)cc1C(C)C)c1cccc2c1OCO2
inactive: dose: 15.0 mg/kg/injection, schedule: Q01DX005 (ip), vehicle: saline with Tween-80 91 % of control | dose: 30.0 mg/kg/injection, schedule: Q01DX005 (ip), vehicle: saline with Tween-80 93 % of control | dose: 60.0 mg/kg/injection, schedule: Q01DX005 (ip), vehicle: saline with Tween-80 87 % of control and 92 % of control

Reference: PubChem BioAssay AID330 (DTP/NCI, 2004)
